# Patent US11986532B2 (Arvinas Operations, Inc., priority 2021, dated 2024)
# Read-outs that look alike come from different tables or passages of the source.
# Target: T1, BCL6 (Homo sapiens, UniProt P41182)
# T1 construct: endogenous in cells; host or cells: T47D breast cancer epithelial cells
# Experiment: Immunofluorescence protocol for high content imaging of BCL6 (degradation) in T47D cells, 3 days compound treatment
# Format: cell-based
# Conditions: for DC50: read-out: Mean DC50 (nM)* category; for Dmax: read-out: Mean Dmax (%)** category
# Procedure: Immunofluorescence Protocol for High Content Imaging of BCL6
# T47D cells were seeded in 100 μl volume of RPMI1640-10% FBS in a 96-well black/clear bottom plates for adherent lines (Corning #3904).
# Day 1. T47D breast cancer epithelial cells were seeded at a density so that confluence is ˜70-90% at endpoint. Cells were seeded at 7K/0.1 ml/well the morning prior to the addition of exemplary bifunctional degradation compounds.
# Day 2. Prepare an 11 point 3-fold serial dilution of exemplary bifunctional compound in DMSO and aliquot an appropriate volume to cell growth media to generate a 2× final concentration of exemplary bifunctional compound. Add an equal volume (0.1 ml) of 2× exemplary bifunctional compound/media mix to previously plated cells, for a final top concentration in aqueous cell growth media of 0.1 or 1 μM. Incubate for 3 days at 37° C., 5% CO2.
# Day 5 Immunofluorescence. Discard cell media. Wash wells with 200 μl of room temperature phosphate-buffered saline (PBS). Prepared 4% paraformaldehyde (PFA) from 16% PFA (Electron Microscopy Sciences #15710) using 1×PBS. Fifty μl of 4% PF was added to each well and incubate for 15 minutes at room temperature to fix the cells. The PFA was aspirated and the cells washed twice with PBS (200 μl)).
# Prepared 0.1% Triton X-100 in PBS using 10% triton X-100 stock. The cells were permeabilized by adding 100 ul of the 0.1% Triton X-100 in PBS to each well to permeabilize cells and incubating at room temperature for 15 minutes. Cells were washed twice with PBS.
# Prepared 3% BSA/PBS (from Thermofisher #37515 Blocker BSA in TBS, 10%), and 100 ul was added to each well. The cells were incubated for at least 1 hour at room temperature.
# Prepared 1% BSA/PBS using Blocker BSA/PBS, and the 3% BSA/PBS removed from the wells.
# For no primary antibody controls, 50 μl 1% BSA/PBS was added.
# Primary antibody (BCL6 Rb Ab, CST-14895, Cell Signaling) was diluted 1:300 in 1% BSA/PBS using Blocker BSA/PBS.
# Fifty μl of primary antibody added to all remaining wells (i.e., all wells other than the primary antibody controls) and the cells were incubated overnight at 4° C. with slow orbital movement.
# Day 6. Contents of the wells was removed and the cells washed four times with 200 ul PBS. 1% BSA/PBS was prepared using Blocker BSA in PBS.
# Diluted secondary antibody goat anti-Rb IgG Alexa-488 1:1000, and cell mask-Alexa-647 1:3000 in 1% BSA/PBS in the same mix. Add 50 μl to each well and incubate at room temperature for 1 hour in the dark.
# Cells were washed three times with 200 ul PBS, and then incubated for 10 minutes with 100 ul Hoechst dye at 1 μg/mL (20 mM stock) to stain cell nuclei. Wells were then washed with 200 μl PBS, and 100 ul of PBS was added to each well and the plate covered plate with a plastic opaque cover. Plates were stored at 4° C. and covered in aluminum foil until imaged.
# Plates were equilibrated to room temperature prior to reading. The bottom of the plate was wiped with 70% isopropanol immediately prior to imaging.
# 10×, 4 fields/well, include Top hat smoothing in the analysis protocol.
# 16% paraformaldehyde: Electron Microscopy Sciences #15710
# Hoechst: Thermofisher #62249
# Blocker BSA in PBS, 10%: Thermofisher #37515
# Blocker BSA in TBS, 10%: Thermofisher #37520
# Goat anti-rabbit or mouse AlexaFluor-488: Thermofisher #A11008
# Cell mask deep red AlexaFluor-647: Thermofisher #C10046
# Wash buffer, PBS: 20×PBS, Thermofisher
# [1] = T47D cells, 3 days compound treatment
smiles,measurement,setting,value
"CNC(=O)COc1cc2cc(Nc3nc(N4CCC(CN5CC6(CCN(c7ccc8c(c7OC)CN(C7CCC(=O)NC7=O)C8=O)CC6)C5)CC4)ncc3Cl)ccc2n(C(C)C)c1=O (stereo not drawn) [Compound 88, 2-{[6-({5-chloro-2-[4-({7-[2-(2,6-dioxopiperidin-3-yl)-4-methoxy-1-oxo-2,3-dihydro-1H-isoindol-5-yl]-2,7-diazaspiro[3.5]nonan-2-yl}methyl)piperidin-1-yl]pyrimidin-4-yl}amino)-2-oxo-1-(propan-2-yl)-1,2-dihydroquinolin-3-yl]oxy}-N-methylacetamide]",DC50,[1],< 10 nM
same,Dmax,[1],< 50%
"CNC(=O)COc1cc2cc(Nc3nc(N4CCC(C(C)(C)N5CC6(CCN(c7cccc8c7CN(C7CCC(=O)NC7=O)C8=O)CC6)C5)CC4)ncc3Cl)ccc2n(C(C)C)c1=O (stereo not drawn) [Compound 8, 2-{[6-({5-chloro-2-[4-(2-{7-[2-(2,6-dioxopiperidin-3-yl)-1-oxo-2,3-dihydro-1H-isoindol-4-yl]-2,7-diazaspiro[3.5]nonan-2-yl}propan-2-yl)piperidin-1-yl]pyrimidin-4-yl}amino)-2-oxo-1-(propan-2-yl)-1,2-dihydroquinolin-3-yl]oxy}-N-methylacetamide]",DC50,[1],< 10 nM
same,Dmax,[1],≥ 70%
"CNC(=O)COc1cc2cc(Nc3nc(N4CCC(O[C@H]5C[C@H](N6CCC7(CCN(c8ccc9c(c8)CN(C8CCC(=O)NC8=O)C9=O)C7)C6)C5)CC4)ncc3Cl)ccc2n(C(C)C)c1=O (stereo partly drawn) [Compound 346, 2-({6-[(5-chloro-2-{4-[(1r,3r)-3-{7-[2-(2,6-dioxopiperidin-3-yl)-1-oxo-2,3-dihydro-1H-isoindol-5-yl]-2,7-diazaspiro [4.4]nonan-2-yl}cyclobutoxy]piperidin-1-yl}pyrimidin-4-yl)amino]-2-oxo-1-(propan-2-yl)-1,2-dihydroquinolin-3-yl}oxy)-N-methylacetamide]",Dmax,T47D,≥ 70%
same,DC50,,< 10 nM
"CNC(=O)COc1cc2cc(Nc3nc(N4CCC(O[C@H]5C[C@H](N6CCN(c7c(OC)cc8c(c7C)C(=O)N(C7CCC(=O)NC7=O)C8=O)CC6)C5)CC4)ncc3Cl)ccc2n(C(C)C)c1=O (stereo partly drawn) [Compound 266, 2-({6-[(5-chloro-2-{4-[(1r,3r)-3-{4-[2-(2,6-dioxopiperidin-3-yl)-6-methoxy-4-methyl-1,3-dioxo-2,3-dihydro-1H-isoindol-5-yl]piperazin-1-yl}cyclobutoxy]piperidin-1-yl}pyrimidin-4-yl)amino]-2-oxo-1-(propan-2-yl)-1,2-dihydroquinolin-3-yl}oxy)-N-methylacetamide]",Dmax,T47D,≥ 70%
same,DC50,,< 10 nM
"CNC(=O)COc1cc2cc(Nc3nc(N4CCC(O[C@H]5C[C@H](N6CCN(c7ccc8c(c7)CN([C@H]7CCC(=O)NC7=O)C8=O)C(C)(C)C6)C5)CC4)ncc3Cl)ccc2n(C(C)C)c1=O [Compound 211, 2-({6-[(5-chloro-2-{4-[(1r,3r)-3-{4-[2-(2,6-dioxopiperidin-3-yl)-1-oxo-2,3-dihydro-1H-isoindol-5-yl]-3,3-dimethylpiperazin-1-yl}cyclobutoxy]piperidin-1-yl}pyrimidin-4-yl)amino]-2-oxo-1-(propan-2-yl)-1,2-dihydroquinolin-3-yl}oxy)-N-methylacetamide]",Dmax,T47D,≥ 70%
same,DC50,,< 10 nM
"CNC(=O)COc1cc2c(F)c(Nc3nc(N4CCC(O[C@H]5C[C@H](N6CCC(c7ccc8c(c7)C(=O)N(C7CCC(=O)NC7=O)C8=O)CC6)C5)CC4)ncc3Cl)ccc2n(C(C)C)c1=O (stereo partly drawn) [Compound 172, 2-({6-[(5-chloro-2-{4-[(1r,3r)-3-{4-[2-(2,6-dioxopiperidin-3-yl)-1,3-dioxo-2,3-dihydro-1H-isoindol-5-yl]piperidin-1-yl}cyclobutoxy]piperidin-1-yl}pyrimidin-4-yl)amino]-5-fluoro-2-oxo-1-(propan-2-yl)-1,2-dihydroquinolin-3-yl}oxy)-N-methylacetamide]",DC50,[1],< 10 nM
same,Dmax,[1],≥ 70%
"CNC(=O)COc1cc2cc(Nc3nc(N4CCC5(CCN(CC6(F)CCN(c7c(F)ccc8c7CN(C7CCC(=O)NC7=O)C8=O)CC6)CC5)CC4)ncc3Cl)ccc2n(C(C)C)c1=O (stereo not drawn) [Compound 96, 2-{[6-({5-chloro-2-[9-({1-[2-(2,6-dioxopiperidin-3-yl)-5-fluoro-1-oxo-2,3-dihydro-1H-isoindol-4-yl]-4-fluoropiperidin-4-yl}methyl)-3,9-diazaspiro[5.5]undecan-3-yl]pyrimidin-4-yl}amino)-2-oxo-1-(propan-2-yl)-1,2-dihydroquinolin-3-yl]oxy}-N-methylacetamide]",DC50,[1],< 10 nM
same,Dmax,[1],50 to 70%
"CNC(=O)COc1cc2cc(Nc3nc(N4CCC(O[C@H]5C[C@H](N6C7CCC6CN(c6ccc8c(c6)C(=O)N(C6CCC(=O)NC6=O)C8=O)C7)C5)CC4)ncc3Cl)ccc2n(C(C)C)c1=O (stereo partly drawn) [Compound 372, 2-({6-[(5-chloro-2-{4-[(1r,3r)-3-{3-[2-(2,6-dioxopiperidin-3-yl)-1,3-dioxo-2,3-dihydro-1H-isoindol-5-yl]-3,8-diazabicyclo[3.2.1]octan-8-yl}cyclobutoxy]piperidin-1-yl}pyrimidin-4-yl)amino]-2-oxo-1-(propan-2-yl)-1,2-dihydroquinolin-3-yl}oxy)-N-methylacetamide]",Dmax,T47D,50 to 70%
same,DC50,,< 10 nM
"CNC(=O)COc1cc2cc(Nc3nc(N4CCC(CN5CCC6(CCN(c7cc(F)cc8c7C(=O)N(C7CCC(=O)NC7=O)C8=O)C6)C5)CC4)ncc3Cl)ccc2n(C(C)C)c1=O (stereo not drawn) [Compound 138, 2-{[6-({5-chloro-2-[4-({7-[2-(2,6-dioxopiperidin-3-yl)-6-fluoro-1,3-dioxo-2,3-dihydro-1H-isoindol-4-yl]-2,7-diazaspiro[4.4]nonan-2-yl}methyl)piperidin-1-yl]pyrimidin-4-yl}amino)-2-oxo-1-(propan-2-yl)-1,2-dihydroquinolin-3-yl]oxy}-N-methylacetamide]",DC50,[1],< 10 nM
same,Dmax,[1],50 to 70%
CNC(=O)COc1cc2cc(Nc3nc(N4CCC(F)(CN5CC6(CCN(c7cc8c(cc7F)C(=O)N(C7CCC(=O)NC7=O)C8)CC6)C5)CC4)ncc3Cl)ccc2n(C(C)C)c1=O (stereo not drawn) [Compound 106],DC50,[1],< 10 nM
same,Dmax,[1],50 to 70%
"CNC(=O)COc1cc2cc(Nc3nc(N4CCC(O[C@H]5C[C@H](N6CCN(c7ccc8c(n7)CN(C7CCC(=O)NC7=O)C8=O)[C@H](C)C6)C5)CC4)ncc3Cl)ccc2n(C(C)C)c1=O (stereo partly drawn) [Compound 415, 2-({6-[(5-chloro-2-{4-[(1r,3r)-3-[(3R)-4-[6-(2,6-dioxopiperidin-3-yl)-5-oxo-5H,6H,7H-pyrrolo [3,4-b]pyridin-2-yl]-3-methylpiperazin-1-yl]cyclobutoxy]piperidin-1-yl}pyrimidin-4-yl)amino]-2-oxo-1-(propan-2-yl)-1,2-dihydroquinolin-3-yl}oxy)-N-methylacetamide]",Mean Dmax (%)** category,,A (A >= 70)
same,DC50,,< 10 nM
"CNC(=O)COc1cc2cc(Nc3nc(N4CCC(CN5CCC6(CC5)CCN6c5cccc6c5CN(C5CCC(=O)NC5=O)C6=O)CC4)ncc3Cl)ccc2n(C(C)C)c1=O (stereo not drawn) [Compound 334, 2-{[6-({5-chloro-2-[4-({1-[2-(2,6-dioxopiperidin-3-yl)-1-oxo-2,3-dihydro-1H-isoindol-4-yl]-1,7-diazaspiro[3.5]nonan-7-yl}methyl)piperidin-1-yl]pyrimidin-4-yl}amino)-2-oxo-1-(propan-2-yl)-1,2-dihydroquinolin-3-yl]oxy}-N-methylacetamide]",Dmax,T47D,50 to 70%
same,DC50,,< 10 nM
